Data: patent US20170137410A1, “FUSED CYCLOALKYL-PYRIMIDINE COMPOUNDS AND USES THEREOF” (Medivation Technologies, Inc., priority 2014, published 2017)

Assays:
[1] = target: T1, activated IGF-1R (Homo sapiens, UniProt P08069); assay: In vitro IGF-1R enzymatic assay (ADP-Glo); format: biochemical; conditions: ATP 100 μM
T1 construct: purchased Millipore 14-802
Method: Inhibition of IGF-1R and IR kinases by compounds described herein were tested. The IC50 values were measured in vitro using an ADP-Glo kinase assay Kit (Promega). For the IGF-1R assay, active recombinant IGF-1R (Millipore #14-802) was used at 1 ng/reaction, the substrate IGF-1R tide (Millipore #12-527) was used at 125 μM and ATP was used at 100 μM. For the IR assay, active recombinant IR (Millipore #14-803) was used at 1 ng/reaction, the substrate Axl tide (Millipore #12-516) was used at 125 μM and ATP at 50 μM. Kinase reactions in both assays were conducted at 30° C. for 20 min with increasing concentrations of the test compounds.
The assay results as the percent inhibition of binding are presented in Tables B2 and B3 for IGF-1R and IR respectively.

[2] = target: ROS/ROS1 (Homo sapiens, UniProt P08922); assay: HotSpot kinase assay against ROS/ROS1; format: biochemical; conditions: HotSpot 33P assay, ATP 10 μM-30 μM
ROS/ROS1, sequence (P08922 28-2347): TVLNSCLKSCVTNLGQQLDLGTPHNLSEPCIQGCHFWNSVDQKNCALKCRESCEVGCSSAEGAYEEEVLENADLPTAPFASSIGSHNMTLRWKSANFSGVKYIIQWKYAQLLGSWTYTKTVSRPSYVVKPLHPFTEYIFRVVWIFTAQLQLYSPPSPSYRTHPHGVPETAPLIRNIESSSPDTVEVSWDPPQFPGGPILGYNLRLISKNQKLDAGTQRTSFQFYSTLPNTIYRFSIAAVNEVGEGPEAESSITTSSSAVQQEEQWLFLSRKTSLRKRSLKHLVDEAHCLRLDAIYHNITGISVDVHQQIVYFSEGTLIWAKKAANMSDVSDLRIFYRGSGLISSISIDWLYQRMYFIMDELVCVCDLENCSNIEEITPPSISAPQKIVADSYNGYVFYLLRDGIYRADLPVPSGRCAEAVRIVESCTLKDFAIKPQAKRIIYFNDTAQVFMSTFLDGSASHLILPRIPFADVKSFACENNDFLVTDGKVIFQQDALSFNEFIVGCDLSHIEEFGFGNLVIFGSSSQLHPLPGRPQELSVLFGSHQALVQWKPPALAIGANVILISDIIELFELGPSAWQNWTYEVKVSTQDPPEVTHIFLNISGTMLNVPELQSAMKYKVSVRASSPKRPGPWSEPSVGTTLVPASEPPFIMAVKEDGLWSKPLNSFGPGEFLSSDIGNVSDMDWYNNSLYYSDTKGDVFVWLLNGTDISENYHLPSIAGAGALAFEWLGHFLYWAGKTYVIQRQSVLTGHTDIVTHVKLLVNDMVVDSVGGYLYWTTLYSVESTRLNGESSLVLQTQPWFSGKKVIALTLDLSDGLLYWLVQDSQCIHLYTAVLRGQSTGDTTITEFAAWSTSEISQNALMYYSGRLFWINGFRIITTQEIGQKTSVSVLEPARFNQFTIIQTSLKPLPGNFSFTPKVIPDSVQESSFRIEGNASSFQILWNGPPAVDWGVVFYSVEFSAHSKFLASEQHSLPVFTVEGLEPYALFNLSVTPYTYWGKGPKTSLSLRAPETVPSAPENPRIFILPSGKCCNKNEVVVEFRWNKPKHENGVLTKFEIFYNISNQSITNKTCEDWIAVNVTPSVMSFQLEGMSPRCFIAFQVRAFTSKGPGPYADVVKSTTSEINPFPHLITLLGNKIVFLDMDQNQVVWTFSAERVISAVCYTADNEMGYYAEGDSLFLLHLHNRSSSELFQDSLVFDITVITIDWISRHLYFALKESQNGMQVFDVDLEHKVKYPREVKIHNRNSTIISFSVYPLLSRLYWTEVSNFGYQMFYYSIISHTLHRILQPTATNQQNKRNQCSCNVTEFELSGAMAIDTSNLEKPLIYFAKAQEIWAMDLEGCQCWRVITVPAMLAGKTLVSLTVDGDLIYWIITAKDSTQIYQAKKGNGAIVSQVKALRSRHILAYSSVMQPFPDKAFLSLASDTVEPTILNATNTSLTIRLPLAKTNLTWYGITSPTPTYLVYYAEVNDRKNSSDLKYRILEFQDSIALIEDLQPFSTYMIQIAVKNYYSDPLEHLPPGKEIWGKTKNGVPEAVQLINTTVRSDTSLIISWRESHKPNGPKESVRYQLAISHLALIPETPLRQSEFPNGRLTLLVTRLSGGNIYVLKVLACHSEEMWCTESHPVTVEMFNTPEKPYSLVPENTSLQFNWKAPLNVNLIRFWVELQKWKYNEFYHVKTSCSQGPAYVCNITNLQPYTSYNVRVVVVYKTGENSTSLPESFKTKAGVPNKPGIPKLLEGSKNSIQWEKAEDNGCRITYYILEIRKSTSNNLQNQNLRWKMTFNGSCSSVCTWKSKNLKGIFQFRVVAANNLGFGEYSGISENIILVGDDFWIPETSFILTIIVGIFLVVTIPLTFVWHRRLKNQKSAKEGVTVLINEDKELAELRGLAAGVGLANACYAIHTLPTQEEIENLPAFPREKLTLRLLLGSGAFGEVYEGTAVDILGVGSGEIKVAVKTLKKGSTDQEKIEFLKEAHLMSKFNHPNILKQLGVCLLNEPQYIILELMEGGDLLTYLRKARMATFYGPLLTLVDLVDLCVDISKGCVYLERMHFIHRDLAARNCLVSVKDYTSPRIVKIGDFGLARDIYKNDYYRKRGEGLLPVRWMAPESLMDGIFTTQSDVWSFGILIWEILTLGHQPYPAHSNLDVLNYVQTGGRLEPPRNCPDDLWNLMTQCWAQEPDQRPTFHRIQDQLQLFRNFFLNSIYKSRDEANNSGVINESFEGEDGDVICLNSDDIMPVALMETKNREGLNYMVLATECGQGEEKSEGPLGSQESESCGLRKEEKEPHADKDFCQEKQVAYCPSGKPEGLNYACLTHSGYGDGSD
Method: The screening was performed using the “HotSpot” assay platform. The assay measures the conversion of a peptide substrate to ^33P-labelled phosphorylated product. Briefly, specific kinase/substrate pairs along with required cofactors were prepared in reaction buffer. Specifically, the substrate was prepared in reaction buffer (20 mM Hepes, pH 7.5; 10 mM MgCl2; 1 mM EGTA; 0.02% Brij35; 0.02 mg/mL BSA; 0.1 mM Na3VO4; 2 mM DTT; 1% DMSO), followed by delivery of any required cofactor to the resulting substrate solution. The corresponding kinase was delivered into the substrate solution and the reaction mixture was mixed gently. Compound was delivered into the reaction mixture, followed 15-20 minutes later by addition of a mixture of ATP (Sigma, St. Louis Mo.) and ^33P ATP (specific activity 0.01 μCi/μL final; Perkin Elmer, Waltham, Mass.) to a final concentration of 10 μM-30 μM to initiate the reaction. Reactions were carried out at RT for 120 min, followed by spotting of the reactions onto P81 ion exchange filter paper (Whatman #3698-915; Whatman Inc., Piscataway, N.J.). Unbound phosphate was removed by extensive washing of filters in 0.75% phosphoric acid. […] The percent of enzyme inhibition was calculated based on the percent of remaining kinase activity. IC50 values and curve fits were obtained using Prism (GraphPad Software).

T1 sequence (P08069 31-1367): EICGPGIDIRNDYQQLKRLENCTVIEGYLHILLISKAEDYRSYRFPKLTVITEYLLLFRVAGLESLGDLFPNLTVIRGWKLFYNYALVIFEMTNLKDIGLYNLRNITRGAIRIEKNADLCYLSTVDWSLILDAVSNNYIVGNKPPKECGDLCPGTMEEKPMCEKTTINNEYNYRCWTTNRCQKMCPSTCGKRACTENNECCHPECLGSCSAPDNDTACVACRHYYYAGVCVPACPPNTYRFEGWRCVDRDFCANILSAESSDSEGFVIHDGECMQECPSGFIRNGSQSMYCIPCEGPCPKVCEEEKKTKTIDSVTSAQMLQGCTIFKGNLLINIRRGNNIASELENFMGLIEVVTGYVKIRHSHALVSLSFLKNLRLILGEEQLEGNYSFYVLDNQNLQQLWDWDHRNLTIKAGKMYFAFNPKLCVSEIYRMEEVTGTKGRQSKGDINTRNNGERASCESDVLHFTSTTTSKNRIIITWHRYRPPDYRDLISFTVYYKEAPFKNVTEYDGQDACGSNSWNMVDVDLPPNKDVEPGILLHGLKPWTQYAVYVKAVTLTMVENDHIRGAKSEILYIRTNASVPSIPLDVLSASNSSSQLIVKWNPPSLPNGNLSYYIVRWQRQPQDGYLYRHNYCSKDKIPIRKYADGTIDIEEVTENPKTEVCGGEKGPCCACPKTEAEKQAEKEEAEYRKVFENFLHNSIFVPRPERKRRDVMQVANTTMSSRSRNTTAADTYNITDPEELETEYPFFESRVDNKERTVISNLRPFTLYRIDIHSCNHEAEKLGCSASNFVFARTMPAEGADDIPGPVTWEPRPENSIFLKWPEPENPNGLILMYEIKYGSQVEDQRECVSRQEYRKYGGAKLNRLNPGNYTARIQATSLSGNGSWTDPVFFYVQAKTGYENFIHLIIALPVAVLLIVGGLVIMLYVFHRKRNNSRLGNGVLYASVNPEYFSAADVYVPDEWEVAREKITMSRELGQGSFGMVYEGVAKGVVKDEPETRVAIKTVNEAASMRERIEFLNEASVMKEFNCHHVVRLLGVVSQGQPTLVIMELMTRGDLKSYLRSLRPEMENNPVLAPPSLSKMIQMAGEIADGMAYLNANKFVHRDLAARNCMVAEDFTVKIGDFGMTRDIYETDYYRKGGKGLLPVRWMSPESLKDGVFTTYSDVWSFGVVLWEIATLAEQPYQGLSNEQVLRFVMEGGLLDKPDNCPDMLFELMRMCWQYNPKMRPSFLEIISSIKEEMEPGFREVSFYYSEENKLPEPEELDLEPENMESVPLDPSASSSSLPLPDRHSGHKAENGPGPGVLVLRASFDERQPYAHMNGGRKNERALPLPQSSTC

Compound	IC50 [1] [µM]	IC50 [2] [µM]	inhibition at 1 µM ([1]; compound 1 μM) [%]
CC1(C(=O)N2CCC(F)(F)CC2)CCCN1c1nc2c(c(Nc3cc(C4CCCC4)[nH]n3)n1)CCC2 (racemic) [compound 146, (1-(4-((5-cyclopentyl-1H-pyrazol-3-yl)amino)-6,7-dihydro-5H-cyclopenta[d]pyrimidin-2-yl)-2-methylpyrrolidin-2-yl)(4,4-difluoropiperidin-1-yl)methanone]	> 30	–	–
CC(C)(C)c1cc(Nc2nc(N3CCC[C@@H]3C(=O)N3CCC(F)(F)CC3)nc3c2CCC3)n[nH]1 [142a, (R)-(1-(4-((5-(tert-butyl)-1H-pyrazol-3-yl)amino)-6,7-dihydro-5H-cyclopenta[d]pyrimidin-2-yl)pyrrolidin-2-yl)(4,4-difluoropiperidin-1-yl)methanone]	4.85	> 1	–
CCC(=O)N1CCN(C(=O)[C@H]2CCCN2c2nc3c(c(Nc4cc(C5CCCC5)[nH]n4)n2)CCC3)CC1 [143a, 1-(4-((4-((5-cyclopentyl-1H-pyrazol-3-yl)amino)-6,7-dihydro-5H-cyclopenta[d]pyrimidin-2-yl)-D-prolyl)piperazin-1-yl)propan-1-one]	0.74	0.0522	–
CCN(C(=O)[C@@H]1CCCN1c1nc2c(c(Nc3cc(C(C)C)[nH]n3)n1)CCC2)c1nccs1 [145b, (S)—N-ethyl-1-(4-((5-isopropyl-1H-pyrazol-3-yl)amino)-6,7-dihydro-5H-cyclopenta[d]pyrimidin-2-yl)-N-(thiazol-2-yl)pyrrolidine-2-carboxamide]	0.47	–	–
CCN(C(=O)[C@@H]1CCCN1c1nc2c(c(Nc3cc(C(C)(C)C)[nH]n3)n1)CCC2)c1nccs1 [144b, (S)-1-(4-((5-(tert-butyl)-1 H-pyrazol-3-yl)amino)-6,7-dihydro-5H-cyclopenta[d]pyrimidin-2-yl)-N-ethyl-N-(thiazol-2-yl)pyrrolidine-2-carboxamide]	10.3	> 1	–
CCC(=O)N1CCN(C(=O)[C@@H]2CCCN2c2nc3c(c(Nc4cc(C5CCCC5)[nH]n4)n2)CCC3)CC1 [143b, (S)-1-(4-((4-((5-cyclopentyl-1H-pyrazol-3-yl)amino)-6,7-dihydro-5H-cyclopenta[d]pyrimidin-2-yl)prolyl)piperazin-1-yl)propan-1-one]	> 30	> 1	–
CC(C)c1cc(Nc2nc(N3CCC[C@H]3C(=O)N(C)c3nccs3)nc3c2CCC3)n[nH]1 [68b, (S)-1-(4-((5-isopropyl-1H-pyrazol-3-yl)amino)-6,7-dihydro-5H-cyclopenta[d]pyrimidin-2-yl)-N-methyl-N-(thiazol-2-yl)pyrrolidine-2-carboxamide]	0.243	0.00441	84
CC(C)(C)c1cc(Nc2nc(N3CCC[C@H]3C(=O)N3CCC(F)(F)CC3)nc3c2CCC3)n[nH]1 [142b, (S)-(1-(4-((5-(tert-butyl)-1H-pyrazol-3-yl)amino)-6,7-dihydro-5H-cyclopenta[d]pyrimidin-2-yl)pyrrolidin-2-yl)(4,4-difluoropiperidin-1-yl)methanone]	> 10	> 1	–
